Laboratory results: patent publication US20150224164A1, “TREATMENT OF AUTISM SPECTRUM DISORDERS USING GLYCYL-L-2-METHYLPROLYL-L-GLUMATIC ACID” (Neuren Pharmaceuticals Limited, priority 2013, published 2015)

Columns and labels:
[1] = tested on: cortical neurons injured with okadaic acid; assay: In vitro neuroprotection, cortical cultures injured with okadaic acid (MTT); type: cell-based, rat; conditions: 10 μM; okadaic acid injury; 24 hours incubation; MTT-assay
Description: A dam was sacrificed by CO2-treatment, and then was prepared for caesarean section. After surgery, the embryos were removed from their amniotic sacs and decapitated. The heads were placed on ice in DMEM/F12 medium for striatum and PBS+0.65% D(+)-glucose for cortex.
The two cortical hemispheres were carefully removed by spatula from the whole brain with the ventral side facing upside into a PBS+0.65% D(+)-glucose containing petri dish. Forceps were put into the rostral part (near B. olfactorius) of the cortex in order to fix the tissue and two lateral-sagittal oriented cuts were made to remove the […] and entorhinal cortices. […]
The cells were triturated once with a glass Pasteur pipette in 1 ml of Neurobasal/B27 medium and subsequently twice by using a 1 ml insulin syringe with a 22 gauge needle. […] Cells were counted and adjusted to 50,000 cells per 60 μl. […]
To cause toxic injury to neurons, we exposed neurons to 1:100 parts of okadaic acid at concentrations of 30 nM or 100 nM and 0.5 mM 3-nitropropionic acid (for cerebellar microexplants only). […] The survival rate was determined by a colorimetric end-point MTT-assay at 595 nm in a multi-well plate reader. For the cerebellar microexplants four windows (field of 0.65 mm^2) with highest cell density were chosen and cells displaying neurite outgrowth were counted.

[2] = tested on: MeCP2 knock-out mice; conditions: MeCP2 knock-out model; cited from earlier work
[3] = Pharmacokinetics after intravenous bolus injection; type: in vivo, rat
Description: Adult male Wistar rats weighing between 180 and 240 g were used to determine the pharmacokinetics of GPE and G2MePE. To facilitate intravenous bolus injections and blood sampling, all rats were surgically implanted with an indwelling jugular venous cannula under halothane anesthesia three days before the experiment. Groups of six rats were given a single intravenous bolus injection of either 30 mg/kg GPE or 10 mg/kg G2MePE dissolved in 0.1M succinate buffer (pH 6.5). Blood samples (about 220 μl each) were collected into heparinized tubes containing Sigma protease inhibitor cocktail for mammalian tissues at 10 and 0 min before injection of either GPE or G2MePE, and 1, 2, 4, 8, 16, 32, 64 and 128 min after injection of either GPE or G2MePE. The samples were centrifuged at 3000 g for 15 min at 4° C. and the plasma removed and stored at −80° C. until extraction and assay by either radioimmunoassay (“RIA”) or reverse phase HPLC. The RIA and HPLC methods used were conventional.
The k and half-life (t1/2) were calculated from the slope of the linear regression line in the elimination phase of the semi-logarithmic plot of plasma concentration versus time as: Log C=−kt/2.3+log C0. Results were expressed as mean±standard error.

NCC(=O)N1CCC[C@H]1C(=O)N[C@@H](CCC(=O)O)C(=O)O [GPE, glycyl-L-prolyl-L-glutamic acid, reference compound]
neuroprotection [1]: 64% | life span and neuronal function [2]: prolong life and increase neuronal function | degradation ([3]; in vivo and in vitro): rapidly degraded | first order rate constant ([3]; single i.v. bolus, GPE 30 mg/kg, G-2-MePE 10 mg/kg): 0.15 ± 0.014 min⁻¹ | peak plasma concentration ([3]; single i.v. bolus, GPE 30 mg/kg, G-2-MePE 10 mg/kg, mean±standard error): 40 ± 10.8 µg/mL
